Assay results published in patent publication US20060014750A1, “Pharmaceutical compositions for the treatment of CNS and other disorders” (Pfizer Inc, priority 2001, published 2006).
Counter-ions that a name gives are not always drawn.

Row | Compound | melting point [°C]
1 | CCOC(=O)N1CCN2CCC1CC2 (as salt: hydrochloride) | 207.7
2 | O=C(Oc1ccccc1-c1nc2ccccc2o1)N1CCN2CCC1CC2 (as salt: hydrochloride) | 259.9
3 | O=C(Oc1ccccc1-c1nc2ccccc2s1)N1CCN2CCC1CC2 (as salt: hydrochloride) | 247.6
4 | O=C(Oc1ccc(C(F)(F)F)cc1)N1CCN2CCC1CC2 (as salt: hydrochloride) | 260.7
5 | COc1cccc(OC(=O)N2CCN3CCC2CC3)c1 (as salt: hydrochloride) | 204.3
6 | O=C(Oc1ccc(C2CCc3ccccc32)cc1)N1CCN2CCC1CC2 (stereo not shown) (as salt: hydrochloride) | 168.7
7 | O=C(Oc1ccc(OCc2ccccc2)cc1)N1CCN2CCC1CC2 (as salt: hydrochloride) | 278.5
8 | O=C(Oc1ccc(-n2ccnc2)cc1)N1CCN2CCC1CC2 (as salt: hydrochloride) | > 300
9 | CCCCCCCCOC(=O)N1CCN2CCC1CC2 (as salt: hydrochloride) | 217.5
10 | O=C(Oc1ccc(Cl)c(Cl)c1)N1CCN2CCC1CC2 (as salt: hydrochloride) | 260.2
11 | CC(=O)N1CCN(c2ccc(OC(=O)N3CCN4CCC3CC4)cc2)CC1 (as salt: hydrochloride) | 166.6
12 | N#Cc1ccc(OC(=O)N2CCN3CCC2CC3)cc1 (as salt: hydrochloride) | 289.8
13 | O=C(Oc1ccccc1)N1CCN2CCC1CC2 | 254.8
14 | CCCOC(=O)N1CCN2CCC1CC2 (as salt: hydrochloride) | 242
15 | O=C(Oc1ccc(-n2cncn2)cc1)N1CCN2CCC1CC2 (as salt: hydrochloride) | 253.1
16 | O=C(Oc1ccc(I)cc1)N1CCN2CCC1CC2 (as salt: hydrochloride) | 280.2
17 | CSc1ccc(OC(=O)N2CCN3CCC2CC3)cc1 (as salt: hydrochloride) | 235.2
18 | O=C(Oc1ccc(F)cc1)N1CCN2CCC1CC2 (as salt: hydrochloride) | 276.8
19 | N#Cc1ccc(-c2ccc(OC(=O)N3CCN4CCC3CC4)cc2)cc1 (as salt: hydrochloride) | > 300
20 | O=C(Oc1cccc(F)c1)N1CCN2CCC1CC2 (as salt: hydrochloride) | 228.2
21 | O=C(Oc1ccccc1Cc1ccccc1)N1CCN2CCC1CC2 (as salt: hydrochloride) | 214
22 | O=C(Oc1ccccc1[N+](=O)[O-])N1CCN2CCC1CC2 (as salt: hydrochloride) | 260.4
23 | O=C(Oc1ccc(-c2ccc(Br)cc2)cc1)N1CCN2CCC1CC2 (as salt: hydrochloride) | > 300

Further lines, results first:

Row | melting point [°C] | Compound
24 | 238 | O=C(Oc1ccc(Oc2ccccc2)cc1)N1CCN2CCC1CC2 (as salt: hydrochloride)
25 | 269.7 | COc1ccc(OC(=O)N2CCN3CCC2CC3)cc1 (as salt: hydrochloride)
26 | 204.8 | O=C(Oc1cccc(Oc2ccccc2)c1)N1CCN2CCC1CC2 (as salt: hydrochloride)
27 | 272.2 | S=C(Oc1ccccc1)N1CCN2CCC1CC2 (as salt: hydrochloride)
28 | 239.5 | Cc1cc(OC(=O)N2CCN3CCC2CC3)cc(C)c1Br (as salt: hydrochloride)
29 | 228.7 | O=C(Oc1ccccc1C(F)(F)F)N1CCN2CCC1CC2 (as salt: hydrochloride)
30 | 224.5 | O=C(Oc1cccc(Br)c1)N1CCN2CCC1CC2 (as salt: hydrochloride)
31 | 243.8 | O=C(Oc1cccc(I)c1)N1CCN2CCC1CC2 (as salt: hydrochloride)
32 | 249.2 | Cc1cccc(OC(=O)N2CCN3CCC2CC3)c1 (as salt: hydrochloride)
33 | 210.2 | O=C(Oc1cccc(-c2cccnc2)c1)N1CCN2CCC1CC2 (as salt: hydrochloride)
34 | 294.1 | O=C(Oc1ccc(C2CCCCC2)cc1)N1CCN2CCC1CC2 (as salt: hydrochloride)
35 | 229.3 | O=C(Oc1cccc(C(F)(F)F)c1)N1CCN2CCC1CC2 (as salt: hydrochloride)
36 | 198.7 | COC(=O)N1CCN2CCC1CC2 (as salt: hydrochloride)
37 | 221.8 | O=C(Oc1ccc(Cc2ccccc2)cc1)N1CCN2CCC1CC2 (as salt: hydrochloride)
38 | 283.4 | CC(C)(C)c1cccc(OC(=O)N2CCN3CCC2CC3)c1 (as salt: hydrochloride)
39 | 205.1 | O=C(Oc1cccc([N+](=O)[O-])c1)N1CCN2CCC1CC2 (as salt: hydrochloride)

Row | melting point [°C] | Compound
40 | 237.4 | COC(=O)c1ccc(OC(=O)N2CCN3CCC2CC3)cc1 (as salt: hydrochloride)
41 | 289.7 | CC(C)(C)c1ccc(OC(=O)N2CCN3CCC2CC3)cc1 (as salt: hydrochloride)
42 | 234.7 | O=C(Oc1ccc(Br)c(Cl)c1)N1CCN2CCC1CC2 (as salt: hydrochloride)
43 | 267.5 | O=C(Oc1ccc([N+](=O)[O-])cc1)N1CCN2CCC1CC2 (as salt: hydrochloride)
44 | 255.5 | O=C(Oc1ccc2ccccc2c1)N1CCN2CCC1CC2 (as salt: hydrochloride)
45 | 266.5 | CC(C)COC(=O)N1CCN2CCC1CC2 (as salt: hydrochloride)
46 | 228 to 231 | O=C(Nc1ccc(Br)cc1)N1CCN2CCC1CC2 (as salt: HCl)
47 | 257.5 | O=C(Oc1ccc(Cl)cc1)N1CCN2CCC1CC2 (as salt: hydrochloride)
48 | 251.2 | O=C(Oc1ccccc1Cl)N1CCN2CCC1CC2 (as salt: hydrochloride)
49 | 212.5 | Cc1cc(OC(=O)N2CCN3CCC2CC3)ccc1Br (as salt: hydrochloride)
50 | 246 | Cc1ccc(OC(=O)N2CCN3CCC2CC3)cc1C (as salt: hydrochloride)
51 | 267.2 | O=C(Oc1ccccc1Br)N1CCN2CCC1CC2 (as salt: hydrochloride)
52 | 254 | O=C(Oc1ccccc1I)N1CCN2CCC1CC2 (as salt: hydrochloride)
53 | 241.7 | O=C(c1ccccc1)c1cccc(OC(=O)N2CCN3CCC2CC3)c1 (as salt: hydrochloride)
54 | 174.2 | O=C(Oc1ccc2cc(Br)ccc2c1)N1CCN2CCC1CC2
55 | 235.6 | O=C(OCc1ccccc1)N1CCN2CCC1CC2 (as salt: hydrochloride)
